Test results as given in patent US9446039B2, “Aminoheteroaryl compounds as MTH1 inhibitors” (CEMM—FORSCHUNGSZENTRUM FÜR MOLEKULARE MEDIZIN GMBH, priority 2012, dated 2016).

Experiments:
Assay type in all cases: binding
[1] = molecular target: T1, SW480 colon carcinoma cells lysate proteins (Homo sapiens, UniProt P26639); conditions: PreyGene TARS
T1 sequence (P26639 1-723): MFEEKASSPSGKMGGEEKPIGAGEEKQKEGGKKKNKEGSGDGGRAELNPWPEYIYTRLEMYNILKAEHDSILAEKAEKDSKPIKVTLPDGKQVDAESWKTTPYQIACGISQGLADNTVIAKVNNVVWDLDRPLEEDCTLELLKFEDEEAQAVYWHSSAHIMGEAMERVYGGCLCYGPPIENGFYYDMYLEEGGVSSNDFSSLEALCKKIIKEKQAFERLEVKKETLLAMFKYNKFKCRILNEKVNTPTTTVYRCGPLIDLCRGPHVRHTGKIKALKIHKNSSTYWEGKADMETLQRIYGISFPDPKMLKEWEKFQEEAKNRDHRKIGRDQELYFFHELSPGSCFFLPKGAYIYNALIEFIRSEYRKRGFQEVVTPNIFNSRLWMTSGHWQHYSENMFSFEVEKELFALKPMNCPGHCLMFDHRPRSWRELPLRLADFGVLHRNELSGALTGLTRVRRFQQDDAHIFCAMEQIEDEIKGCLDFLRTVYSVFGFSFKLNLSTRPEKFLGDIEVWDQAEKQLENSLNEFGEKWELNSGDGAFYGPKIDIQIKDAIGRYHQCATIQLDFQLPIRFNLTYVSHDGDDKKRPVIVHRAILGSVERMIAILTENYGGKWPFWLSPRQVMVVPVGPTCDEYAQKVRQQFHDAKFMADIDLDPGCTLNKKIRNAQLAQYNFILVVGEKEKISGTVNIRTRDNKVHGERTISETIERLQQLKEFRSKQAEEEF

[2] = molecular target: SW480 colon carcinoma cells lysate proteins (Homo sapiens, UniProt P30086); conditions: PreyGene PEBP1
Sequence of SW480 colon carcinoma cells lysate proteins (Homo sapiens, UniProt P30086) (P30086 whole entry): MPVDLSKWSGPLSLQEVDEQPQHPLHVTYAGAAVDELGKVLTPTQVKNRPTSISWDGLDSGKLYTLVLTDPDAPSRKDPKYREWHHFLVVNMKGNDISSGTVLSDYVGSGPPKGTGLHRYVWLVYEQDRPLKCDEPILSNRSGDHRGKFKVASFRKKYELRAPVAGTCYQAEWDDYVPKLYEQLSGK

[3] = molecular target: SW480 colon carcinoma cells lysate proteins (Homo sapiens, UniProt P63313); conditions: PreyGene TMSB10
Sequence of SW480 colon carcinoma cells lysate proteins (Homo sapiens, UniProt P63313) (P63313 whole entry): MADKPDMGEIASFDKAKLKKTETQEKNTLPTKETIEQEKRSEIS

[4] = molecular target: T2, SW480 colon carcinoma cells lysate proteins (Homo sapiens, UniProt P40926); conditions: PreyGene MDH2
T2 sequence (P40926 25-338): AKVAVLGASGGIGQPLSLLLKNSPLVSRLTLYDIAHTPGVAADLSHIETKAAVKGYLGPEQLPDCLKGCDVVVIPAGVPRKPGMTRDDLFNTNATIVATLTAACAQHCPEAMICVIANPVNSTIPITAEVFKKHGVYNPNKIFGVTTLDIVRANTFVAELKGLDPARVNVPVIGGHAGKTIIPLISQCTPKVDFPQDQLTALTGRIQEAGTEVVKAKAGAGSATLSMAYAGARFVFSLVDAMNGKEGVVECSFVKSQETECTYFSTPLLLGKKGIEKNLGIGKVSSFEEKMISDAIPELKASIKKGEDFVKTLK

[5] = molecular target: T3, SW480 colon carcinoma cells lysate proteins (Homo sapiens, UniProt P35527); conditions: PreyGene KRT9
T3 sequence (P35527 1-623): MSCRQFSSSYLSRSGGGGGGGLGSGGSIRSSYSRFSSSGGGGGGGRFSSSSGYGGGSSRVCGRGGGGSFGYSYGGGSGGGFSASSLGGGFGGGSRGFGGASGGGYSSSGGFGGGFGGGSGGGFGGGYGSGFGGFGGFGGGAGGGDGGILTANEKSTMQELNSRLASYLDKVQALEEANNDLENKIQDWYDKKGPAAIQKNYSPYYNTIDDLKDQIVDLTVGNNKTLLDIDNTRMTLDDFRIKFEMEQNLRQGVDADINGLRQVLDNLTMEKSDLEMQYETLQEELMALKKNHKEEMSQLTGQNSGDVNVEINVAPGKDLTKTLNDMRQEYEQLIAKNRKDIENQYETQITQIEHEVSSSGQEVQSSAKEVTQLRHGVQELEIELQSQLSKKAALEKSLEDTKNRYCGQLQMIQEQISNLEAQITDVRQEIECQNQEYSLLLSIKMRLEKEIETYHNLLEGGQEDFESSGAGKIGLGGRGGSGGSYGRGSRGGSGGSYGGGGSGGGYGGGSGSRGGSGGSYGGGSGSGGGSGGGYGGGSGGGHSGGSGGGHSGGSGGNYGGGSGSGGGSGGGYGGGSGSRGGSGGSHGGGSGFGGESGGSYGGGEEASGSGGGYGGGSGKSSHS

[6] = molecular target: SW480 colon carcinoma cells lysate proteins (Homo sapiens, UniProt P27708); conditions: PreyGene CAD
Sequence of SW480 colon carcinoma cells lysate proteins (Homo sapiens, UniProt P27708) (P27708 whole entry): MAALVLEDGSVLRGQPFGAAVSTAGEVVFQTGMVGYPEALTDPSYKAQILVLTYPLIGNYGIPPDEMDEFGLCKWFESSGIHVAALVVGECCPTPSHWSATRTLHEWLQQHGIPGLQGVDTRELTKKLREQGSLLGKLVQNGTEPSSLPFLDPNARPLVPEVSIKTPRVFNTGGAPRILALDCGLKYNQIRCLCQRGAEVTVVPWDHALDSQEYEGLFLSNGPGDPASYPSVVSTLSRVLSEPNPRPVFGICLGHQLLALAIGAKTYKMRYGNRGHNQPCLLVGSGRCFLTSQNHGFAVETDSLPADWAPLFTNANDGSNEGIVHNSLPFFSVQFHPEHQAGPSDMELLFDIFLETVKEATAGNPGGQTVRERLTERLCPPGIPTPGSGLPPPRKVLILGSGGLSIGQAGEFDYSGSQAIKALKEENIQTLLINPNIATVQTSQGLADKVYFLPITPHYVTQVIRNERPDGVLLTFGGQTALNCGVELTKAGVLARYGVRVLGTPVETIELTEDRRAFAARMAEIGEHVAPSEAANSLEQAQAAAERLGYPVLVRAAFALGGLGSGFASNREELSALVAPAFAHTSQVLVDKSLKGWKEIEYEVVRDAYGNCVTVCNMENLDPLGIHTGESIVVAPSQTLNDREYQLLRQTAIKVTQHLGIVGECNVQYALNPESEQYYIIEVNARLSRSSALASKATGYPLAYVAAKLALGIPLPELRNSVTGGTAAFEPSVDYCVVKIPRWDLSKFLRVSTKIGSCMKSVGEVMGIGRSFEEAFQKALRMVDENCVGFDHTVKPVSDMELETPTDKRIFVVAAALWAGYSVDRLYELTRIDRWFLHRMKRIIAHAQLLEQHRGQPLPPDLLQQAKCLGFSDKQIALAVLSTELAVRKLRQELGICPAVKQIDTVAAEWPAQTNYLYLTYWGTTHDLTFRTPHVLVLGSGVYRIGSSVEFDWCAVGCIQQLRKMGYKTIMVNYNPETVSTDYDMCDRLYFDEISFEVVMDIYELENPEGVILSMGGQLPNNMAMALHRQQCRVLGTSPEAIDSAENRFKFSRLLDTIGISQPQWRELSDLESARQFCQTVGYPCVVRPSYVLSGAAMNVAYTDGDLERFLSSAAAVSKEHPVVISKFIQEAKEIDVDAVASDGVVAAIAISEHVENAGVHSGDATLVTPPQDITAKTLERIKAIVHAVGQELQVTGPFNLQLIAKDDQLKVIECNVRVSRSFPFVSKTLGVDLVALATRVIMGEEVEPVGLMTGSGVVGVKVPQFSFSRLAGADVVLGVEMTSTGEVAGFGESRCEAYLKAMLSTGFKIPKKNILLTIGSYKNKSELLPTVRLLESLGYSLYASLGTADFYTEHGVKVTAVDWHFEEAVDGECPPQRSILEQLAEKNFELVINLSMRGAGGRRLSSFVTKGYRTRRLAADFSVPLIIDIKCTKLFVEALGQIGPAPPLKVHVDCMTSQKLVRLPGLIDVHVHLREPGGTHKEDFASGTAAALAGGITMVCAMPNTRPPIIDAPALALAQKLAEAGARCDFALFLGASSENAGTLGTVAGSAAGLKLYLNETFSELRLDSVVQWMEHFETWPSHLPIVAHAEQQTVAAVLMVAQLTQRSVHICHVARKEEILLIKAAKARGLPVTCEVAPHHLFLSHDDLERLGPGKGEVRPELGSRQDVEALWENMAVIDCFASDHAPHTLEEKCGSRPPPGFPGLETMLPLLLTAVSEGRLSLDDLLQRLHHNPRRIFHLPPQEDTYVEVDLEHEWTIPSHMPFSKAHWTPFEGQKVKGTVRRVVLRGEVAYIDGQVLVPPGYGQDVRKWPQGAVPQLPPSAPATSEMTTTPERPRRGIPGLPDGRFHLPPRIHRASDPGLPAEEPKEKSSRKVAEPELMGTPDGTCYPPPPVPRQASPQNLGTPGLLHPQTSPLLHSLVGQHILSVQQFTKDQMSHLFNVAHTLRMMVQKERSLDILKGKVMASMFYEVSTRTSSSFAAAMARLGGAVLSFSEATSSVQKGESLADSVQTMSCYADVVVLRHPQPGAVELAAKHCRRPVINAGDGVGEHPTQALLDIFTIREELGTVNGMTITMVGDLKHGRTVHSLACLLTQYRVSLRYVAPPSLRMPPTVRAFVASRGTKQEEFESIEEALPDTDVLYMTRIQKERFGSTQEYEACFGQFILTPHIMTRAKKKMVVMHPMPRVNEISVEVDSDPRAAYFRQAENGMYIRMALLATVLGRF

[7] = molecular target: SW480 colon carcinoma cells lysate proteins (Homo sapiens, UniProt P12004); conditions: PreyGene PCNA
Sequence of SW480 colon carcinoma cells lysate proteins (Homo sapiens, UniProt P12004) (P12004 whole entry): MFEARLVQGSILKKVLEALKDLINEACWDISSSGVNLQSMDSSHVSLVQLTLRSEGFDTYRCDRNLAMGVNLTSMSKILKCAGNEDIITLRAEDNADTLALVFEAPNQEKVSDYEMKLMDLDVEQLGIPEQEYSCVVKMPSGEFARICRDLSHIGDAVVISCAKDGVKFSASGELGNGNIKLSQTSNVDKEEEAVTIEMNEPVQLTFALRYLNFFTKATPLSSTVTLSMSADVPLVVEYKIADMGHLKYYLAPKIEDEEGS

[8] = molecular target: T4, SW480 colon carcinoma cells lysate proteins (Homo sapiens, UniProt P30043); conditions: PreyGene BLVRB
T4 sequence (P30043 1-206): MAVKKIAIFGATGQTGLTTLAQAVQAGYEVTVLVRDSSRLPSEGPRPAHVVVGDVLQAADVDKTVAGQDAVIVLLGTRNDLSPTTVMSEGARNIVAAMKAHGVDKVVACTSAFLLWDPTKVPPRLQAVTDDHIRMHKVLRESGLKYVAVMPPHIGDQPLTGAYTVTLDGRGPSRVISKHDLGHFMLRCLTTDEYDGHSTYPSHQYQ

Structure (SMILES): C[C@H](Oc1cc(-c2cnn(C3CCNCC3)c2)cnc1N)c1c(Cl)ccc(F)c1Cl [(5)-crizotinib]
- AvgP [1]: 0.4614
- SC.Exp. 1-1 [1]: 5
- SC.Exp. 1-2 [1]: 4
- SC.Exp. 2-1 [1]: 0
- SC.Exp. 2-2 [1]: 0
- Sum (SC.Exp.) [1]: 9
- AvgP [2]: 0.3266
- SC.Exp. 1-1 [2]: 3
- SC.Exp. 1-2 [2]: 3
- SC.Exp. 2-1 [2]: 0
- SC.Exp. 2-2 [2]: 0
- Sum (SC.Exp.) [2]: 6
- AvgP [3]: 0.3518
- SC.Exp. 1-1 [3]: 2
- SC.Exp. 1-2 [3]: 2
- SC.Exp. 2-1 [3]: 0
- SC.Exp. 2-2 [3]: 0
- Sum (SC.Exp.) [3]: 4
- AvgP [4]: 0.4441
- SC.Exp. 1-1 [4]: 5
- SC.Exp. 1-2 [4]: 5
- SC.Exp. 2-1 [4]: 0
- SC.Exp. 2-2 [4]: 0
- Sum (SC.Exp.) [4]: 10
- AvgP [5]: 0.1979
- SC.Exp. 1-1 [5]: 18
- SC.Exp. 1-2 [5]: 15
- SC.Exp. 2-1 [5]: 4
- SC.Exp. 2-2 [5]: 6
- Sum (SC.Exp.) [5]: 43
- AvgP [6]: 0.3483
- SC.Exp. 1-1 [6]: 2
- SC.Exp. 1-2 [6]: 3
- SC.Exp. 2-1 [6]: 0
- SC.Exp. 2-2 [6]: 0
- Sum (SC.Exp.) [6]: 5
- AvgP [7]: 0.3137
- SC.Exp. 1-1 [7]: 2
- SC.Exp. 1-2 [7]: 1
- SC.Exp. 2-1 [7]: 0
- SC.Exp. 2-2 [7]: 0
- Sum (SC.Exp.) [7]: 3
- AvgP [8]: 0.1915
- SC.Exp. 1-1 [8]: 0
- SC.Exp. 1-2 [8]: 2
- SC.Exp. 2-1 [8]: 0
- SC.Exp. 2-2 [8]: 0
- Sum (SC.Exp.) [8]: 2
